# From patent US20140050677A1, “Personal care and medicinal products incorporating bound organosulfur groups” (priority 2006, published 2014)
# Entries after “also recorded” stand apart in the source; their conditions may differ. Where two headings read alike, the source gives them in different places.
# Assays:
# [1] = test system: pro-inflammatory cytokines (e.g. IL-1, TNF-alpha and IL-10); conditions: cited from earlier work
# [2] = test system: plaque, mouth sores; assay: Evaluation of the antimicrobial toothpaste by Applicant and evaluators; assay type: in vivo; conditions: as active ingredient of experimental toothpastes
# Experimental: I decided to next try mixing it with the toothpaste that I normally use by squeezing out the contents of a tube of Arm and Hammer Dental Care Toothpaste into a bowl, mixing in 10 ml (2 teaspoons) of 1/200 diluted allyl mercaptan, and then returning the toothpaste to the tube. […] Mixing with a conventional toothpaste provides an adequate carrier for the allium related compound. More generally, of course, any orally acceptable carrier suitable for application to the teeth may be used. […] This includes the carriers used in commercially available toothpastes, tooth powders, or other dentifrice products.
# The resulting toothpaste has no significant “garlic” smell or taste. It left the mouth feeling very clean, so clean that unwaxed dental floss “squeaks” when slid up and down the side of each tooth.
# Several friends and acquaintances were willing to try the toothpaste and provide feedback. Under a “Nondisclosure and Produce Evaluation Agreement” I supplied them with free samples to evaluate. The agreement specified that the samples are not for sale, that the inventive aspects of the samples are confidential, and that the samples have no warranty.
# A commercial version of the toothpaste (using onion oil as the active ingredient) is now being manufactured under license by Viola Vitalis corporation of Dhaka, Bangladesh (a company that is partially owned by the applicant).
# [3] = during the first hour after consumption; cited from earlier work
# [4] = test system: Cu2^+ induced LDL oxidation; conditions: cited from earlier work
# [5] = test system: NFkB; conditions: macrophages, cited from earlier work
# [6] = in vitro, in the presence of cysteine; cited from earlier work
# [7] = cited from earlier work; for Reaction in Blood Half-life: in vitro; for metabolism in blood: disappearing in the process
# [8] = after fresh garlic (e.g. 25 g) or pure allicin (60 mg); cited from earlier work
# [9] = cited from earlier work; for breath AMS and acetone production: after consumption; for time of disappearance from breath: after garlic consumption
# [10] = test system: nematodes; conditions: cited from earlier work
# [11] = test system: 13 types of bacteria; conditions: cited from earlier work
# [12] = test system: leukemia cell cultures; conditions: co-administered to reduce glutathione; cited from earlier work
# [13] = test system: glutathione; conditions: daily dosage of 1000 mg, multiple myeloma patients; cited from earlier work
# [14] = test system: E-coli O157:H7; conditions: cited from earlier work
# [15] = test system: total glutathione level of cells; conditions: in vitro administration of SAMC; cited from earlier work
# [16] = test system: acetaminophen poisoning; conditions: mice, cited from earlier work
# [17] = test system: liver glutathione level; conditions: cited from earlier work
# [18] = cited from earlier work
# [19] = test system: trypsin enzyme inhibitor; conditions: cysteine 2% by weight, soy flour heated at 65 degrees C. for 1 hour; cited from earlier work
# [20] = test system: cytochrome P-450 enzymes (e.g. CYP2E1) and flavin-containing monooxygenases; conditions: cited from earlier work
# [21] = test system: plaque; assay: Diluted allyl mercaptan poured over the toothbrush bristles (Applicant); assay type: in vivo; conditions: 1/200 in distilled water on toothbrush, a week of use
# Description: Because allyl mercaptan and propyl mercaptan are water soluble, it is easier to experiment with them than with diallyl disulfide or dipropyl disulfide (which are an oils).
# [22] = target: NFkB signal transduction proteins p50 and P65 (Homo sapiens, UniProt P19838+Q04206); conditions: measured with a nitric oxide probe; cited from earlier work
# [23] = without nitrosothiol formation; cited from earlier work
compound,measurement,setting,value
"CCCSSCCC [DPDS, di-n-propyl disulfide]",expression of pro-inflammatory cytokines,[1],inhibit the expression
same,performance relative to the allyl mercaptan toothpaste,[2],performed similarly
[AsH3] [arsenic],fraction excreted directly from the liver to the bile,[3],~40%
C=CCSC[C@H](NC(C)=O)C(=O)O [N-acetyl-S-allylcysteine],effect on Cu2^+ induced LDL oxidation,[4],significantly reduce
N[C@@H](CSN=O)C(=O)O [S-Nitrosocysteine],donor concentration that nearly completely inhibits the activation of NFkB,[5]; nitric oxide donor,1 micro mole
S-allylcysteine sulfoxide [alliin],effect on Cu2^+ induced LDL oxidation,[4],significantly reduce
"C=CCS[S+]([O-])CC=C (centres unmarked) [Allicin, DiAllylThioSulfinate]",Reaction with Cysteine Half-life,[6],<1 min
same,Reaction in Blood Half-life,[7],<1 min
same,time for metabolism to allyl mercaptan,[7]; red blood cells exposed to allicin,less than one minute
same,"detectability in blood, urine, or stool",[8],undetectable
C=CCSCC=C [DAS],breath AMS and acetone production,[9],only produces breath acetone
"CCCS[S+]([O-])CCC (centres unmarked) [dipropyl thiosulfinate, Dipropyl Thiosulfinate]",nematicidal activity ranking,[10],most effective compound found
O=C(N[C@H](CO)[C@H](O)c1ccc([N+](=O)[O-])cc1)C(Cl)Cl [Chloramphenicol],average zone of inhibition,[11],20 mm
same,species inhibited,[11],12/13
"O=C1O[C@H]([C@@H](O)CO)C(O)=C1O [vitamin C, ascorbic acid]",cytotoxicity of chemotherapeutic arsenicals,[12],increase the cytotoxicity
same,mean percentage decrease of glutathione,[13],60%
"C=CCSC [AMS, allyl methyl sulfide]",time of disappearance from breath,[9],~20 h
C=CCSSSCC=C [diallyl trisulfide],metabolism in blood,[7],metabolize directly in blood to allyl mercaptan
same,breath AMS and acetone production,[9],produce both breath AMS and acetone
C=CCS[S+](C)[O-] (centres unmarked) [methyl allyl thiosulfinate],effectiveness against E-coli O157:H7,[14],effective
C=CCSC[C@H](N)C(=O)O [S-allylcysteine],effect on Cu2^+ induced LDL oxidation,[4],significantly reduce
same,breath AMS and acetone production,[9],produces no breath AMS or acetone
"CS[S+](C)[O-] (centres unmarked) [methyl methane thiosulfinate, Methyl methanethiosulfinate]",effectiveness against E-coli O157:H7,[14],effective
"C=CCSSC[C@H](N)C(=O)O [SAMC, S-AllylMercaptoCysteine]",metabolism in blood,[7],metabolize directly in blood to allyl mercaptan
same,Reaction in Blood Half-life,[7],3 min
same,effect on Cu2^+ induced LDL oxidation,[4],significantly reduce
same,total glutathione level of cells,[15],significantly increase; also recorded: significant increases the total glutathione level
same,"protection from acetaminophen poisoning, pretreatment",[16]; pretreatment,protect mice from acetaminophen poisoning
same,"protection from acetaminophen, post treatment",[16]; single dose 200 mg/kg shortly after exposure,protective
same,breath AMS and acetone production,[9],produce both breath AMS and acetone
sodium arsenate,liver glutathione level,"[17]; protein deficient (6%) rats, unexposed controls 74",134 micrograms per gram
same,liver glutathione level,"[17]; well fed rats (18% protein), unexposed controls 88",123 micrograms per gram
"N[C@@H](CS)C(=O)O [cysteine, Cysteine]",pKa,[18],approximately 8.5
same,deactivation of the trypsin enzyme inhibitor,[19],over 90%
"C=CCSSCC=C [DADS, Diallyl Disulfide]",Reaction with Cysteine Half-life,[6],45 min
same,metabolism in blood,[7],metabolize directly in blood to allyl mercaptan
same,Reaction in Blood Half-life,[7],60 min
same,activity of the enzymes producing allicin from DADS,[20],up to 121 pmol/min/pmol CYP2D6
same,conversion of DADS to allicin,[20]; in 30 minutes,approximately 30%
same,expression of pro-inflammatory cytokines,[1],inhibit the expression
same,breath AMS and acetone production,[9],produce both breath AMS and acetone
C=CCSSC=CC[S+]([O-])CC=C (mixture of isomers) [ajoene],metabolism in blood,[7],metabolize directly in blood to allyl mercaptan
same,breath AMS and acetone production,[9],produce both breath AMS and acetone
"C=CCS [AllylSH, AllylThiol]",Reaction with Cysteine Half-life,[6],80 min
same,plaque,[21],reduction in plaque
same,time of disappearance from breath,[9],≤ 1 h
[N]=O [nitric oxide],concentration that inhibited DNA binding activity of p50 and P65,[22],20-100 nano mole
same,concentration that nearly completely inhibits the activation of NFkB,[5],less than 1 micro-mole
same,half life in circulation,[23],about 5 seconds
"CCCCS(=N)(=O)CCC(N)C(=O)O (centres unmarked) [BSO, buthionine sulfoximine]",cytotoxicity of chemotherapeutic arsenicals,[12],increase the cytotoxicity
